Assay [1] deals with A549. Description: Cytotoxicity against human A549 cells assessed as reduction in cell viability after 72 hrs by MTT assay. The assay is classed as functional, cell-based. Particulars: A549, 72 h.
Assay [2] has as its system NCI-H1975. In words: Cytotoxicity against human NCI-H1975 cells assessed as reduction in cell viability after 72 hrs by MTT assay. Type of assay: functional, cell-based. As to conditions: NCI-H1975, 72 h.
The subject of assay [3] is MKN-45. In words: Cytotoxicity against human MKN45 cells assessed as reduction in cell viability after 72 hrs by MTT assay. Type of assay: functional, cell-based. Particulars: MKN-45, 72 h.
The nature of assay [4]: Cytotoxicity against human SGC cells assessed as reduction in cell viability after 72 hrs by MTT assay. Type of assay: functional, cell-based.
In assay [5] the target is Epidermal growth factor receptor (Homo sapiens, UniProt P00533). In words: Inhibition of EGFR (unknown origin) using peptide substrate after 60 mins by HTRF assay.
Chain of Epidermal growth factor receptor (Homo sapiens, UniProt P00533) (P00533 whole entry): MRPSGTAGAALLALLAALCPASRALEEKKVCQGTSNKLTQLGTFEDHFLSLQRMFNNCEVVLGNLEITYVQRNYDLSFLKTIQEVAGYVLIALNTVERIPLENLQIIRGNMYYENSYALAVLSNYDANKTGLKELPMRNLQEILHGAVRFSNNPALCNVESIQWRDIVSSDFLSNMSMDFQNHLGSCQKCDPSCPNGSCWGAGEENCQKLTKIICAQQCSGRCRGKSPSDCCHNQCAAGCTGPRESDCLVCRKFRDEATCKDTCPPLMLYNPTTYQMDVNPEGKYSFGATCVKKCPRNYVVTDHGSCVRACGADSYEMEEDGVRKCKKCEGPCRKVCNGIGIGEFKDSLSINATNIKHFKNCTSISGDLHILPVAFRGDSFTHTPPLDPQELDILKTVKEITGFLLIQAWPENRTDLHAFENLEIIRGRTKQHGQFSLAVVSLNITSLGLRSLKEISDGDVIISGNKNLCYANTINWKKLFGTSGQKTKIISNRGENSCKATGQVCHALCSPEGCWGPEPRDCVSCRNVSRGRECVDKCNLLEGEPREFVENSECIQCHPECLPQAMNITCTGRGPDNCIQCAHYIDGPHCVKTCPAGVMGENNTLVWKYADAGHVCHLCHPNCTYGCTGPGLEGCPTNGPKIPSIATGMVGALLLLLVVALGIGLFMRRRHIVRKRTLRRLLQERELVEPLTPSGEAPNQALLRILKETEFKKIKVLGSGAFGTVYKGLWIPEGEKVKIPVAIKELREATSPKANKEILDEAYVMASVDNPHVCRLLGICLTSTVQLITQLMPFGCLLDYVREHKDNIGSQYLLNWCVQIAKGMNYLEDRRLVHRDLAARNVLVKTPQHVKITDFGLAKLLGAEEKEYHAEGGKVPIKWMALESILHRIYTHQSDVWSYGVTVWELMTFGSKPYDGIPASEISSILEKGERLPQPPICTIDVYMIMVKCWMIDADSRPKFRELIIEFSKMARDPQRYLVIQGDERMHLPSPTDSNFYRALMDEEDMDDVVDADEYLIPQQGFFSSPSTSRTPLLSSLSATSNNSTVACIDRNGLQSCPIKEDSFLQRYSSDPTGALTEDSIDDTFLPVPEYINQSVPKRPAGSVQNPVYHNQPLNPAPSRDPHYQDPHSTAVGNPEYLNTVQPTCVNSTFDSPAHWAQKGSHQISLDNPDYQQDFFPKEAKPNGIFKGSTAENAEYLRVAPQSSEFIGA
Assay [6] concerns the target Vascular endothelial growth factor receptor 2 (Homo sapiens, UniProt P35968). In words: Inhibition of VEGFR2 (unknown origin) using peptide substrate after 60 mins by HTRF assay.
Assay [7] concerns the target Epidermal growth factor receptor (Homo sapiens, UniProt P00533, L858R/T790M). In words: Inhibition of EGFR T790M/L858R double mutant (unknown origin) using peptide substrate after 60 mins by HTRF assay.
Assay [8] is described as follows: Antifibrotic activity against Wistar rat cardiac fibroblasts assessed as inhibition of cell proliferation at 20 uM after 12 hrs by MTT assay relative to control. The assay is classed as functional.
Assay [9] in a line: Antifibrotic activity against TGF-induced Wistar rat cardiac fibroblasts assessed as inhibition of cell proliferation after 12 hrs by MTT assay. The assay is classed as functional.
Assay [10] can be described thus: Inhibition of glycosylated human ATX using substrate FS-3 preincubated for 45 mins followed by substrate addition measured after 45 mins by fluorescence assay.
The test system of assay [11] is RAW264.7. In words: Anti-inflammatory activity in mouse RAW264.7 cells assessed as inhibition of LPS-induced NO production by measuring NO level at 10 ug/ml preincubated for 1 hr followed by LPS-stimulation measured after 24 hrs by Griess assay. The assay is classed as functional.
Assay [12] concerns RAW264.7. In words: Anti-inflammatory activity in mouse RAW264.7 cells assessed as inhibition of LPS-induced TGFbeta mRNA level preincubated for 2 hrs followed by LPS-stimulation measured after 8 hrs by RT-PCR method. The assay is classed as functional, cell-based.
The subject of assay [13] is RAW264.7. Description: Anti-inflammatory activity in mouse RAW264.7 cells assessed as inhibition of LPS-induced TNFalpha mRNA level preincubated for 2 hrs followed by LPS-stimulation measured after 8 hrs by RT-PCR method. Type of assay: functional, cell-based.
The subject of assay [14] is RAW264.7. Description: Anti-inflammatory activity in mouse RAW264.7 cells assessed as inhibition of LPS-induced TGFbeta mRNA level at 2.5 ug/ml preincubated for 2 hrs followed by LPS-stimulation measured after 8 hrs by RT-PCR method relative to control. Type of assay: functional.
For assay [15], the system named is RAW264.7. In words: Anti-inflammatory activity in mouse RAW264.7 cells assessed as inhibition of LPS-induced TGFbeta mRNA level at 5 ug/ml preincubated for 2 hrs followed by LPS-stimulation measured after 8 hrs by RT-PCR method relative to control. The assay is classed as functional.
Assay [16] deals with RAW264.7. Description: Anti-inflammatory activity in mouse RAW264.7 cells assessed as inhibition of LPS-induced TGFbeta mRNA level at 10 ug/ml preincubated for 2 hrs followed by LPS-stimulation measured after 8 hrs by RT-PCR method relative to control. Type of assay: functional.
Assay [17] relates to RAW264.7. Description: Anti-inflammatory activity in mouse RAW264.7 cells assessed as inhibition of LPS-induced TNFalpha mRNA level at 2.5 ug/ml preincubated for 2 hrs followed by LPS-stimulation measured after 8 hrs by RT-PCR method relative to control. The assay is classed as functional.
For assay [18], the system named is RAW264.7. In words: Anti-inflammatory activity in mouse RAW264.7 cells assessed as inhibition of LPS-induced TNFalpha mRNA level at 5 ug/ml preincubated for 2 hrs followed by LPS-stimulation measured after 8 hrs by RT-PCR method relative to control. The assay is classed as functional.
Assay [19] has as its system RAW264.7. Description: Anti-inflammatory activity in mouse RAW264.7 cells assessed as inhibition of LPS-induced TNFalpha mRNA level at 10 ug/ml preincubated for 2 hrs followed by LPS-stimulation measured after 8 hrs by RT-PCR method relative to control. Type of assay: functional.

SMILES strings stand for the structures.

Chain of Epidermal growth factor receptor (Homo sapiens, UniProt P00533, L858R/T790M) (P00533 25-1210 T790M/L858R limits assumed): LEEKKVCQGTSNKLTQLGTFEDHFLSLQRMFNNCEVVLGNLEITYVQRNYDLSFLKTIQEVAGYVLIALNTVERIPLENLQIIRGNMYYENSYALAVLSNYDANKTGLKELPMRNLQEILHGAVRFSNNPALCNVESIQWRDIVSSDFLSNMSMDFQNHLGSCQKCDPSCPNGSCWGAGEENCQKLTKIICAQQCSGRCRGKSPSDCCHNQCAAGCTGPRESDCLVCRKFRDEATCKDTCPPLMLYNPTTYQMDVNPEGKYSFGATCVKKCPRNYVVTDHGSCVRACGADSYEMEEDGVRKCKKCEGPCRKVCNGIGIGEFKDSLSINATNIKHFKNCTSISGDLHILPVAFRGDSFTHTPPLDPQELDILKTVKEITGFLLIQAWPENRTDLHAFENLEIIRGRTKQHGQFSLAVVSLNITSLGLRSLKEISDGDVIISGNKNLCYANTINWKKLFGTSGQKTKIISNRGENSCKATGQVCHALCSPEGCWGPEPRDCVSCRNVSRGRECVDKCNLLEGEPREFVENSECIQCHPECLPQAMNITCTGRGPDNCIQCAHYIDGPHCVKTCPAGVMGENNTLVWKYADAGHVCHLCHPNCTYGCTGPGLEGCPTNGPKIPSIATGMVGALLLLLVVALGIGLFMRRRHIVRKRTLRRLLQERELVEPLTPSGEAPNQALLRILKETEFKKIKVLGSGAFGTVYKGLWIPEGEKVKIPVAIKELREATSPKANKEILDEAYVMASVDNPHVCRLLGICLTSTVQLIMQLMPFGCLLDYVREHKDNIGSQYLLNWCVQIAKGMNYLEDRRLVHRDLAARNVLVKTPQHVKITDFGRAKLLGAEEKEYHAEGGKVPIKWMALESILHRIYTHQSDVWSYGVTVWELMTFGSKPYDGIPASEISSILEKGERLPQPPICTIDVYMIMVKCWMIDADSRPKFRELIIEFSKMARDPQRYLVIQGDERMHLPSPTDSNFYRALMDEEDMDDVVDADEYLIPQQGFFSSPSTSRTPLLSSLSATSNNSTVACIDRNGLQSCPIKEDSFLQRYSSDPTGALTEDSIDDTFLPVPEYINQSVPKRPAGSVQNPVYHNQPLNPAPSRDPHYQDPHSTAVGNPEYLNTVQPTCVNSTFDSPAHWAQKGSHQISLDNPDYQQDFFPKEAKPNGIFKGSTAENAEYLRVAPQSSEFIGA
Chain of Vascular endothelial growth factor receptor 2 (P35968 whole entry): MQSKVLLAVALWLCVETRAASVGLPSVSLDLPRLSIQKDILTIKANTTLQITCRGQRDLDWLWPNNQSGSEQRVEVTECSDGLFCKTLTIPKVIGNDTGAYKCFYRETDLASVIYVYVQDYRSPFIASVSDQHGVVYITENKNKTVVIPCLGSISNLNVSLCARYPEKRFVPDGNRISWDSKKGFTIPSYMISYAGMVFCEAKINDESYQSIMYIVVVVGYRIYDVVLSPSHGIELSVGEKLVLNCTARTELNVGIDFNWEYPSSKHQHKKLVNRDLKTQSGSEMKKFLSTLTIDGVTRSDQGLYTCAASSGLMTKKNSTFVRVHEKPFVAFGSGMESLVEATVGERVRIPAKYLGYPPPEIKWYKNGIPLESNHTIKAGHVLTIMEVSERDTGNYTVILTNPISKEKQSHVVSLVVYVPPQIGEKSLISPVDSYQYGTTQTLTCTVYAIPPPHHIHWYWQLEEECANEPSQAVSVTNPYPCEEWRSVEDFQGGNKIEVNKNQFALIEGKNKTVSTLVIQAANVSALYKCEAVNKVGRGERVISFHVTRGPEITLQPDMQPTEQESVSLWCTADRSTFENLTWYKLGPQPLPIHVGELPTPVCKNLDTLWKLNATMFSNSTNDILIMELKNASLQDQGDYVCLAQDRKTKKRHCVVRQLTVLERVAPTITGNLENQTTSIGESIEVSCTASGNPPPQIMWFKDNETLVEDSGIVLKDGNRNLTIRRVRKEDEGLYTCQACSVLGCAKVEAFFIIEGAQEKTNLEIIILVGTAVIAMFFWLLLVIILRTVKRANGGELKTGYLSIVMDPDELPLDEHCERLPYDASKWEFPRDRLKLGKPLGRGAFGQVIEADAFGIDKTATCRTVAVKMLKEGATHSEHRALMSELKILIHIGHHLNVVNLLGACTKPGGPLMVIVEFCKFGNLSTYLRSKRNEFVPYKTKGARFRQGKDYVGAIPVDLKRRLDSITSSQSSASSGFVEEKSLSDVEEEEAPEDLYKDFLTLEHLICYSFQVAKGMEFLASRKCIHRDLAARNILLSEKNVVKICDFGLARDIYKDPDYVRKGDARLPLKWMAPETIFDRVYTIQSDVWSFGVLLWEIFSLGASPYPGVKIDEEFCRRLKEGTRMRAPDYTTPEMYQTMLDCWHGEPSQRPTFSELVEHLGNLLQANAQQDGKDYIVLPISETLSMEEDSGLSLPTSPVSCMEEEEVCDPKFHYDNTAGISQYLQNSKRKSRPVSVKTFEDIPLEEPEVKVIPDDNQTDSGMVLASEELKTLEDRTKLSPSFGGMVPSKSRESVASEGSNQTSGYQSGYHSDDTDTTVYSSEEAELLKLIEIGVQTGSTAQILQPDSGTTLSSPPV

Turning to `Cc1ccc(/C=N/NC(=O)N2CCc3ncnc(Nc4cccc(C(F)(F)F)c4)c3C2)cc1`, the IC50 in assay [1] was 4.96 µM; in [2], 21.3 µM; in assay [3] it was 3.43 µM; in assay [4], 2910 nM; in assay [5], 24.2 nM; in assay [6], 152 nM. For the same molecule, the half-maximal inhibitory concentration (IC50) in [7] came to 3.22 µM; in assay [9], 1490 nM; in assay [10], 29.1 nM. Moreover, in assay [8], the inhibition at 20 µM amounted to 77%. In assay [11], the Activity is 1.05 µM. The inhibition entry in assay [12] and in assay [13] was “Dose-dependent effect” each time. Further, the inhibition at 2.5 µg/mL in [14] came out at 46%; in [17], 37%. Further, the inhibition at 5 µg/mL was found to be 65% in [15] and 54% in assay [18]. Also, the inhibition at 10 µg/mL was 86% in assay [16] and 72% in assay [19].

The record behind these values is ChEMBL document CHEMBL4219106, “Discovery and optimization of tetrahydropyrido[4,3-d]pyrimidine derivatives as novel ATX and EGFR dual inhibitors” (Bioorg Med Chem, 2018).
